Measurements as given in patent US10399940B2, “Substituted pyrrolidines and methods of use” (AbbVie S.à.r.l., priority 2016, dated 2019).
Like-named read-outs stand apart in the source and are kept apart here.

Molecular target: T1, F508delCFTR (Homo sapiens, UniProt P13569, DEL508-508)
T1 construct: expressed in transfected cells; host or cells: CFBE41o- (human lung derived epithelial cell line), doxycycline-inducible expression
Test: Cell Surface Expression-Horse Radish Peroxidase (CSE-HRP) assay
Format: cell-based
Conditions: CFBE41o-F508delCFTR-HRP cells; for Maximum % activity (with co-corrector): with co-corrector (2 μM); for Maximum % activity (with co-corrector) / Maximum % activity (without co-corrector): normalized to on-plate positive control, highest concentration 20 μM
How it was run: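 CFBE41o- cells expressed F508delCFTR with HRP in the fourth exofacial loop, induced by 0.5 μg/mL doxycycline for 72 h at 37 °C. Compounds alone or with 2 μM co-corrector ran 18–24 h at 33 °C, 8-point 3-fold from 20 μM. Washed-cell luminol luminescence was normalized to DMSO and positive control, fitted sigmoidally for EC50 (three plates).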

[1] = test compound without co-corrector, 18-24 hours at 33° C., read-out: EC50 (without co-corrector)
[2] = with co-corrector (2 μM of 3-[(2R,4R)-4-({[1-(2,2-difluoro-1,3-benzodioxol-5-yl)cyclopropyl]carbonyl}amino)-7-methoxy-3,4-dihydro-2H-chromen-2-yl]benzoic acid), read-out: EC50 (with co-corrector)

T1 sequence (P13569 with tags, fused parts or gaps DEL508-508): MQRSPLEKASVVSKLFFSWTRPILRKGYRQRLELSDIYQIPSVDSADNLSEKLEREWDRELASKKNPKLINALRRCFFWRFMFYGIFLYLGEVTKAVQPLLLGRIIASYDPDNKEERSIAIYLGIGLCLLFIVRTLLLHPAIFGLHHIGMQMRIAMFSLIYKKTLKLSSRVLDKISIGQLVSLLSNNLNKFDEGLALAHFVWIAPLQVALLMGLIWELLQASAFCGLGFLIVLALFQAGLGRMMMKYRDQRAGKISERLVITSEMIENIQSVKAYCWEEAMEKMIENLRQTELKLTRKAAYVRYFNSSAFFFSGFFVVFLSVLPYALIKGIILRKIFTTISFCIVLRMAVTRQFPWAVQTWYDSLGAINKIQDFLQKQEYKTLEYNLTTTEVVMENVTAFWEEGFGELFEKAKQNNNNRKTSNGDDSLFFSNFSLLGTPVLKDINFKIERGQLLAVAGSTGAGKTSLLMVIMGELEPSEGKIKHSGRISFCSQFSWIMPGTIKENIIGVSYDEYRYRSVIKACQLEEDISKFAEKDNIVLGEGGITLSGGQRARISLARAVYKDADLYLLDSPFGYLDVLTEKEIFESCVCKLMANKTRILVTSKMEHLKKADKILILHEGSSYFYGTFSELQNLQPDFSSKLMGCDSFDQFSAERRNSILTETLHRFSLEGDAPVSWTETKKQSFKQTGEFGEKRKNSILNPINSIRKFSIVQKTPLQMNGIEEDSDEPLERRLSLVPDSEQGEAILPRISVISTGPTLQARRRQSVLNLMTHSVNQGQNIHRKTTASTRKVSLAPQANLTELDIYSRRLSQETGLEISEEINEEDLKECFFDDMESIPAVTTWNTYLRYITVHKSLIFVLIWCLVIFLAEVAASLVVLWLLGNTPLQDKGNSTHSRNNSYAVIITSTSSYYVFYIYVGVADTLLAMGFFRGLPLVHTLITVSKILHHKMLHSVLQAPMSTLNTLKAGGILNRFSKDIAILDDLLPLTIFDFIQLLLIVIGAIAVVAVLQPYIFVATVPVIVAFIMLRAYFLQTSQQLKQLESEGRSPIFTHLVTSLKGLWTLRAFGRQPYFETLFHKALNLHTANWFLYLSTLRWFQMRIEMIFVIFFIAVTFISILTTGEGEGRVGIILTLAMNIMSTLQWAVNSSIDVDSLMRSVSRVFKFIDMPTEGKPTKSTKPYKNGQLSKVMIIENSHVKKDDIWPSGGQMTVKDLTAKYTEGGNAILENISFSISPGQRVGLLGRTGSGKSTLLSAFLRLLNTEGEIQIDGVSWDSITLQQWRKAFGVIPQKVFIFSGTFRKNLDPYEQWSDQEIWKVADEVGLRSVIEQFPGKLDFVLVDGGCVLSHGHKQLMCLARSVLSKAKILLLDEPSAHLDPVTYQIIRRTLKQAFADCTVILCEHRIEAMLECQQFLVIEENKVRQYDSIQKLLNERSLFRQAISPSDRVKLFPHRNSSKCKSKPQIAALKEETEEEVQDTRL

SMILES | EC50 [1] | EC50 [2] | Maximum % activity (with co-corrector) | Maximum % activity (without co-corrector)
COc1ncc(C(F)(F)F)cc1CO[C@H]1[C@H](C(C)(C)C)[C@@H](C(=O)O)N(C(=O)[C@H]2CCCCO2)[C@H]1c1ccccc1Cl [Example 104, (2S,3R,4S,5S)-3-tert-butyl-5-(2-chlorophenyl)-4-{[2-methoxy-5-(trifluoromethyl)pyridin-3-yl]methoxy}-1-[(2R)-oxane-2-carbonyl]pyrrolidine-2-carboxylic acid] | 1000 to 10000 nM | 1000 to 10000 nM | +++ (≥350) | ++ (≥100 and <200)
COc1nc2ccccc2cc1CO[C@H]1[C@H](C(C)(C)C)[C@@H](C(=O)O)N(C(=O)OC(C)C)[C@H]1c1ccccc1 [Example 106, (2S,3R,4S,5S)-3-tert-butyl-4-[(2-methoxyquinolin-3-yl)methoxy]-5-phenyl-1-{[(propan-2-yl)oxy]carbonyl}pyrrolidine-2-carboxylic acid] | 1000 to 10000 nM | 1000 to 10000 nM | ++ (≥150 and <350) | + (<100)
CC(C)OC(=O)N1[C@H](C(=O)O)[C@@H](C(C)(C)C)[C@H](OCc2cc(C(F)(F)F)cnc2O)[C@@H]1c1ccccc1 [Example 107, (2S,3R,4S,5S)-3-tert-butyl-4-{[2-hydroxy-5-(trifluoromethyl)pyridin-3-yl]methoxy}-5-phenyl-1-{[(propan-2-yl)oxy]carbonyl}pyrrolidine-2-carboxylic acid] | 1000 to 10000 nM | 1000 to 10000 nM | ++ (≥150 and <350) | + (<100)
COc1ncc(C(F)(F)F)cc1CO[C@H]1[C@H](C(C)(C)C)[C@@H](C(=O)O)N(C(=O)OC(C)C)[C@H]1c1ccccc1C1=CCOCC1 [Example 108, (2S,3R,4S,5S)-3-tert-butyl-5-[2-(3,6-dihydro-2H-pyran-4-yl)phenyl]-4-{[2-methoxy-5-(trifluoromethyl)pyridin-3-yl]methoxy}-1-{[(propan-2-yl)oxy]carbonyl}pyrrolidine-2-carboxylic acid] | 1000 to 10000 nM | 1000 to 10000 nM | +++ (≥350) | ++ (≥100 and <200)
COc1ncc(C(F)(F)F)cc1CO[C@H]1[C@H](C(C)(C)C)[C@@H](C(=O)O)N(C(=O)[C@H]2CCOC2)[C@H]1c1ccccc1C(C)C [Example 109, (2S,3R,4S,5S)-3-tert-butyl-4-{[2-methoxy-5-(trifluoromethyl)pyridin-3-yl]methoxy}-1-[(3S)-oxolane-3-carbonyl]-5-[2-(propan-2-yl)phenyl]pyrrolidine-2-carboxylic acid] | 1000 to 10000 nM | 1000 to 10000 nM | ++ (≥150 and <350) | + (<100)
COc1ncc(C(F)(F)F)cc1CO[C@H]1[C@H](C(C)(C)C)[C@@H](C(=O)O)N(C(=O)C2CCOCC2)[C@H]1c1ccccc1C(C)C [Example 110, (2S,3R,4S,5S)-3-tert-butyl-4-{[2-methoxy-5-(trifluoromethyl)pyridin-3-yl]methoxy}-1-(oxane-4-carbonyl)-5-[2-(propan-2-yl)phenyl]pyrrolidine-2-carboxylic acid] | 1000 to 10000 nM | 1000 to 10000 nM | +++ (≥350) | ++ (≥100 and <200)
COc1ncc(C(F)(F)F)cc1CO[C@H]1[C@H](C(C)(C)C)[C@@H](C(=O)O)N(C(=O)[C@@H]2CCOC2)[C@H]1c1ccccc1C(C)C [Example 111, (2S,3R,4S,5S)-3-tert-butyl-4-{[2-methoxy-5-(trifluoromethyl)pyridin-3-yl]methoxy}-1-[(3R)-oxolane-3-carbonyl]-5-[2-(propan-2-yl)phenyl]pyrrolidine-2-carboxylic acid] | 1000 to 10000 nM | 1000 to 10000 nM | +++ (≥350) | ++ (≥100 and <200)
COc1ncc(C(F)(F)F)cc1CO[C@H]1[C@H](C(C)(C)C)[C@@H](C(=O)O)N(C(=O)[C@@H]2CCCO2)[C@H]1c1ccccc1C1CC1 [Example 112, (2S,3R,4S,5S)-3-tert-butyl-5-(2-cyclopropylphenyl)-4-{[2-methoxy-5-(trifluoromethyl)pyridin-3-yl]methoxy}-1-[(2S)-oxolane-2-carbonyl]pyrrolidine-2-carboxylic acid] | 1000 to 10000 nM | < 1000 nM | +++ (≥350) | ++ (≥100 and <200)
COc1ccc(C(F)(F)F)cc1CO[C@H]1[C@H](C(C)(C)C)[C@@H](C(=O)O)N(C(=O)[C@@H]2CCCO2)[C@H]1c1cccnc1C(F)(F)F [Example 113, (2S,3R,4S,5S)-3-tert-butyl-4-{[2-methoxy-5-(trifluoromethyl)phenyl]methoxy}-1-[(2S)-oxolane-2-carbonyl]-5-[2-(trifluoromethyl)pyridin-3-yl]pyrrolidine-2-carboxylic acid] | 1000 to 10000 nM | 1000 to 10000 nM | ++ (≥150 and <350) | + (<100)
COc1ccc(C(F)(F)F)cc1CO[C@@H]1[C@H](C(C)(C)C)[C@@H](C(=O)O)N(C(=O)[C@@H]2CCCO2)[C@H]1c1cccnc1C(F)(F)F [Example 114, (2S,3R,4R,5S)-3-tert-butyl-4-{[2-methoxy-5-(trifluoromethyl)phenyl]methoxy}-1-[(2S)-oxolane-2-carbonyl]-5-[2-(trifluoromethyl)pyridin-3-yl]pyrrolidine-2-carboxylic acid] | > 10000 nM | > 10000 nM | + (<150) | + (<100)
COc1ncc(C(F)(F)F)cc1CO[C@H]1[C@H](C(C)(C)C)[C@@H](C(=O)O)N(C(=O)[C@@H]2CCCO2)[C@H]1c1ccccc1Cl [Example 115, (2S,3R,4S,5S)-3-tert-butyl-5-(2-chlorophenyl)-4-{[2-methoxy-5-(trifluoromethyl)pyridin-3-yl]methoxy}-1-[(2S)-oxolane-2-carbonyl]pyrrolidine-2-carboxylic acid] | 1000 to 10000 nM | < 1000 nM | +++ (≥350) | ++ (≥100 and <200)
COc1nc2ccccc2cc1CO[C@H]1[C@H](C(C)(C)C)[C@@H](C(=O)O)N(C(=O)[C@@H]2CCCO2)[C@H]1c1ccccc1C(C)C [Example 116, (2S,3R,4S,5S)-3-tert-butyl-4-[(2-methoxyquinolin-3-yl)methoxy]-1-[(2S)-oxolane-2-carbonyl]-5-[2-(propan-2-yl)phenyl]pyrrolidine-2-carboxylic acid] | 1000 to 10000 nM | 1000 to 10000 nM | +++ (≥350) | ++ (≥100 and <200)

Results, then the compound that gave them:

EC50 [1] | EC50 [2] | Maximum % activity (with co-corrector) | Maximum % activity (without co-corrector) | SMILES
1000 to 10000 nM | 1000 to 10000 nM | +++ (≥350) | ++ (≥100 and <200) | COc1ncc(C(F)(F)F)cc1CO[C@H]1[C@H](C(C)(C)C)[C@@H](C(=O)O)N(C(=O)OC(C)C)[C@H]1c1ccccc1C1CCC1 [Example 101, (2S,3R,4S,5S)-3-tert-butyl-5-(2-cyclobutylphenyl)-4-{[2-methoxy-5-(trifluoromethyl)pyridin-3-yl]methoxy}-1-{[(propan-2-yl)oxy]carbonyl}pyrrolidine-2-carboxylic acid]
1000 to 10000 nM | 1000 to 10000 nM | ++ (≥150 and <350) | + (<100) | COc1ncc(C(F)(F)F)cc1CO[C@H]1[C@H](C(C)(C)C)[C@@H](C(=O)O)N(C(=O)[C@H]2CCCO2)[C@H]1c1ccccc1C(C)C [Example 102, (2S,3R,4S,5S)-3-tert-butyl-4-{[2-methoxy-5-(trifluoromethyl)pyridin-3-yl]methoxy}-1-[(2R)-oxolane-2-carbonyl]-5-[2-(propan-2-yl)phenyl]pyrrolidine-2-carboxylic acid]
1000 to 10000 nM | < 1000 nM | +++ (≥350) | ++ (≥100 and <200) | COc1ncc(C(F)(F)F)cc1CO[C@H]1[C@H](C(C)(C)C)[C@@H](C(=O)O)N(C(=O)[C@@H]2CCCCO2)[C@H]1c1ccccc1Cl [Example 103, (2S,3R,4S,5S)-3-tert-butyl-5-(2-chlorophenyl)-4-{[2-methoxy-5-(trifluoromethyl)pyridin-3-yl]methoxy}-1-[(2S)-oxane-2-carbonyl]pyrrolidine-2-carboxylic acid]
< 1000 nM | < 1000 nM | +++ (≥350) | ++ (≥100 and <200) | COc1ncc(C(F)(F)F)cc1CO[C@H]1[C@H](C(C)(C)C)[C@@H](C(=O)O)N(C(=O)OC(C)C)[C@H]1c1ccccc1OC(C)C [Example 105, (2S,3R,4S,5S)-3-tert-butyl-4-{[2-methoxy-5-(trifluoromethyl)pyridin-3-yl]methoxy}-1-{[(propan-2-yl)oxy]carbonyl}-5-{2-[(propan-2-yl)oxy]phenyl}pyrrolidine-2-carboxylic acid]
< 1000 nM | < 1000 nM | ++ (≥150 and <350) | + (<100) | COc1ncc(C(F)(F)F)cc1CO[C@H]1[C@H](C(C)(C)C)[C@@H](C(=O)O)N(C(=O)[C@@H]2CCCO2)[C@H]1c1cccc(C(C)C)c1 [Example 117, (2S,3R,4S,5S)-3-tert-butyl-4-{[2-methoxy-5-(trifluoromethyl)pyridin-3-yl]methoxy}-1-[(2S)-oxolane-2-carbonyl]-5-[3-(propan-2-yl)phenyl]pyrrolidine-2-carboxylic acid]
